Measurements taken from ChEMBL document CHEMBL3817791, “Discovery of 4-(4-aminopyrazolo[1,5-a][1,3,5]triazin-8-yl)benzamides as novel, highly potent and selective, orally bioavailable inhibitors of Tyrosine Threonine Kinase, TTK” (Bioorg Med Chem Lett, 2016).

Experiments:
[1] = AUC (0 to last) in CD-1 nude mouse at 25 mg/ml, po; type: ADME, organism-based; set-up: dose 25 mg/ml, time 0 - last, route oral; settings: in vivo
[2] = Cmax in CD-1 nude mouse at 10 mg/ml, po; type: ADME, organism-based; set-up: dose 10 mg/ml, route oral; settings: in vivo
[3] = AUC (0 to infinity) in Sprague-Dawley rat at 5 mg/ml, iv; type: ADME, organism-based; set-up: dose 5 mg/ml, route intravenous, time infinity; settings: in vivo
[4] = AUC (0 to last) in CD-1 nude mouse at 100 mg/ml, po; type: ADME, organism-based; set-up: dose 100 mg/ml, route oral, time 0 - last; settings: in vivo
Cytochrome P450 3A4 = Cytochrome P450 3A4 (Homo sapiens, UniProt P08684); assay: Inhibition of CYP3A4 (unknown origin); type: ADME
Chain of Cytochrome P450 3A4 (P08684 whole entry): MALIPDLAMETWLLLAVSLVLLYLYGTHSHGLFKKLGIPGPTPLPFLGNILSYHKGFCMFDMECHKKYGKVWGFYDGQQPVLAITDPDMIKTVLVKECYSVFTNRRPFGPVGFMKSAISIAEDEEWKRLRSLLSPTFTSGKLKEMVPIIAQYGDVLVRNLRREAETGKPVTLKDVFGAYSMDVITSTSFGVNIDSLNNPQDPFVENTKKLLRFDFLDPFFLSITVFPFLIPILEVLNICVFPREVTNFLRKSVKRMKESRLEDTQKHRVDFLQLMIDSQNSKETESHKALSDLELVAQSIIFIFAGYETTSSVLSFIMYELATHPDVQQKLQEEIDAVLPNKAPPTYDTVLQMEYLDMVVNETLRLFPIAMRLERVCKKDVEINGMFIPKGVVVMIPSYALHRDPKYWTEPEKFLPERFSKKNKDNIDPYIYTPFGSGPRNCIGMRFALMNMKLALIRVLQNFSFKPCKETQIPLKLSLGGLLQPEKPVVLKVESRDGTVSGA

[5] = Half life in human microsomes; type: ADME, Microsome
[6] = Protein binding in human plasma; type: ADME, cell-free; settings: read-out: PPB (converted)
HT-29 = assay: Antiproliferative activity against human HT-29 cells; type: functional
[7] = Half life in rat microsomes; type: ADME, Microsome
[8] = AUC (0 to infinity) in Sprague-Dawley rat at 1 mg/ml, iv; type: ADME, organism-based; set-up: dose 1 mg/ml, time infinity, route intravenous; settings: in vivo
[9] = target: Rho-associated protein kinase 2 (Homo sapiens) (UniProt O75116); assay: Inhibition of recombinant human N-terminal His6-tagged ROCK2 (11 to 552 residues) expressed in baculovirus infected Sf21 cells at 1 uM by radiometric assay relative to control
Chain of Rho-associated protein kinase 2 (Homo sapiens) (O75116 whole entry, looked up, the tested form may be a part): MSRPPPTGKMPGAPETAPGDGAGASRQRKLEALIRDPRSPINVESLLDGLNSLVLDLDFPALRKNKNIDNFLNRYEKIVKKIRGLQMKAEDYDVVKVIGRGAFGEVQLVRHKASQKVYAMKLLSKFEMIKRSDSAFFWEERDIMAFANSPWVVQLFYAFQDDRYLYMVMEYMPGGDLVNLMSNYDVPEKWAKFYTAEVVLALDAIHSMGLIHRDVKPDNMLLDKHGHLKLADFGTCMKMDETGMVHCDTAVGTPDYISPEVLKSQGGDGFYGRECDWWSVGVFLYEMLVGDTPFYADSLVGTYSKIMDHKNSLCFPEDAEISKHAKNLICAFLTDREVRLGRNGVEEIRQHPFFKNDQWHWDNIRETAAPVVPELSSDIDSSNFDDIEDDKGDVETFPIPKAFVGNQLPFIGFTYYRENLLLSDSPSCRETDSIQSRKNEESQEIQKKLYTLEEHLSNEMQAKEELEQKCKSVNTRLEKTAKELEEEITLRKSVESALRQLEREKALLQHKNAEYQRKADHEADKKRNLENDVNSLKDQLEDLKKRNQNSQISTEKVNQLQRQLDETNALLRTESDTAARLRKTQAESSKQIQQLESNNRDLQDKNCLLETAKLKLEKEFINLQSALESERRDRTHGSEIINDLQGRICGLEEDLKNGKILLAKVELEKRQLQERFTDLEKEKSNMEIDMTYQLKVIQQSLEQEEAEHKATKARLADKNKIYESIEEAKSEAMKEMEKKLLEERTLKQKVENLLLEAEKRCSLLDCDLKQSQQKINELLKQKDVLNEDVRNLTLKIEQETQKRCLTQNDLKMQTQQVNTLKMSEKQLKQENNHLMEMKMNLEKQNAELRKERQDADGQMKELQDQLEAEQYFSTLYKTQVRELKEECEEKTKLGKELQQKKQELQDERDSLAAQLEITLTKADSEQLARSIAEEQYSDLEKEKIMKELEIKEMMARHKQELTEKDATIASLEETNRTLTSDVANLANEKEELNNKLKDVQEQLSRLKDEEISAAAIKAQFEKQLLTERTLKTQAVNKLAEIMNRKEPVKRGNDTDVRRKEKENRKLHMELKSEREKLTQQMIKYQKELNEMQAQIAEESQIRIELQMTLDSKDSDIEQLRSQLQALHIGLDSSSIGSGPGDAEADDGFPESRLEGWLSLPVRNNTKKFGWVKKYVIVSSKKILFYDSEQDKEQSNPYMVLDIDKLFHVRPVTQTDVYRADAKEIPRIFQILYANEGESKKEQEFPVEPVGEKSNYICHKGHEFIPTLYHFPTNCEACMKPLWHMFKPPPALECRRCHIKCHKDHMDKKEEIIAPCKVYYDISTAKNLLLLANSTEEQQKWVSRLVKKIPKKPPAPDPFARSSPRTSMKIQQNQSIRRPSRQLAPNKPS

[10] = Cmax in CD-1 nude mouse at 25 mg/ml, po; type: ADME, organism-based; set-up: dose 25 mg/ml, route oral; settings: in vivo
[11] = Antiproliferative activity against human OVCAR3 cells; type: functional; settings: OVCAR-3
MDA-MB-468 = assay: Antiproliferative activity against human MDA-MB-468 cells; type: functional
[12] = target: T1, Dual specificity protein kinase TTK (Homo sapiens, UniProt P33981); assay: Competitive inhibition of TTK (unknown origin) by double reciprocal plot analysis in presence of ATP
T1 sequence (P33981 whole entry): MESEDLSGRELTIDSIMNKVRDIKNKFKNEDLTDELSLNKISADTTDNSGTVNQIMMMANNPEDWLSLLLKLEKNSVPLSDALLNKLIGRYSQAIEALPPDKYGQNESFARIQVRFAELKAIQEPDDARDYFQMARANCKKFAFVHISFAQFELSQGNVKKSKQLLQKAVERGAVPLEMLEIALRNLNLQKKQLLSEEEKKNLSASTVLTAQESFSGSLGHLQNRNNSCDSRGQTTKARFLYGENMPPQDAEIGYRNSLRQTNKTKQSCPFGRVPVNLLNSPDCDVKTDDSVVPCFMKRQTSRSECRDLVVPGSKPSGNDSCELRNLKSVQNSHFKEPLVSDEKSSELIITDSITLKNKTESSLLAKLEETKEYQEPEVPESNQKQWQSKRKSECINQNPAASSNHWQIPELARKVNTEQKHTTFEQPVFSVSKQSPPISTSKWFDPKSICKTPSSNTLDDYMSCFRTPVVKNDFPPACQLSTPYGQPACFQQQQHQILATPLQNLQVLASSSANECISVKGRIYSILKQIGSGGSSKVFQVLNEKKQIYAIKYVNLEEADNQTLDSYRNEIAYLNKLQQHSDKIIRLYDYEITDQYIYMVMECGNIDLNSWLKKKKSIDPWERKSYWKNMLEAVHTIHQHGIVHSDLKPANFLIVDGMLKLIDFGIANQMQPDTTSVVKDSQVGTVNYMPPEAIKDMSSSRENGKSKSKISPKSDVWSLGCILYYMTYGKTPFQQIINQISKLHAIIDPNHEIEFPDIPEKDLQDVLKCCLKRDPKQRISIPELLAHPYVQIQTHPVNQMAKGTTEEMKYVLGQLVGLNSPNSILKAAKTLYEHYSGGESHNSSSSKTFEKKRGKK

[13] = Half life in Sprague-Dawley rat at 5 mg/ml, iv; type: ADME, organism-based; settings: in vivo

AUC(0-t) [1]: 19.1 µg·h/mL
Cmax [2]: 0.89 µg/mL
AUC(0-inf) [3]: 4.23 µg·h/mL
AUC(0-t) [4]: 25 µg·h/mL
IC50 (Cytochrome P450 3A4): 0.8 µM
half-life [5]: > 1 h
fraction unbound [6]: 0.028
GI50 (HT-29): 0.015 µM
half-life [7]: > 1 h
AUC(0-inf) [8]: 0.871 µg·h/mL
inhibition [9]: 0%
Cmax [10]: 3.2 µg/mL
GI50 (MDA-MB-468): 0.16 µM
Ki [12]: 0.00077 µM
half-life [13]: 1.7 h
Structure (SMILES): Cc1cc(-c2cnn3c(NCC4CCOCC4)nc(Oc4ccccc4)nc23)ccc1C(=O)NC1CC1
GI50 [11]: 0.19 µM
